Experiments:
Assay in all cases: competitive isoTOP-ABPP
Format in all cases: binding
[1] = biological target: T1, RPL10 60S ribosomal protein L10 (Homo sapiens, UniProt P27635); conditions: 50 uM, in vitro; for isoTOP-ABPP ratio (R) at liganded lysine P27635_K121: sol, 231; for isoTOP-ABPP reactivity ratio at lysine P27635_K121: 231 sol
T1 construct: isoTOP-ABPP experiments performed in cell lysates (in vitro); endogenous in cells; host or cells: soluble proteome of human cancer cell lines (MDA-MB-231; Ramos and Jurkat also prepared)
Outline: (§1)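 Probe: STP-alkyne, 0.1 mM, 1 h RT, after fragment pretreatment of lysate (esters 50 μM; guanidinylators 100 μM). Tags: light = compound, heavy = DMSO, via CuAAC. Replicates averaged if SD <60% of mean; otherwise lowest ratio used when any R <4.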

[2] = biological target: T2, KPNA2 Importin subunit alpha-2 (Homo sapiens, UniProt P52292); conditions: for isoTOP-ABPP ratio (R) at liganded lysine P52292_K459: sol, 231
T2 construct: isoTOP-ABPP experiments performed in cell lysates (in vitro); endogenous in cells; host or cells: soluble proteome of human cancer cell lines (MDA-MB-231, Ramos, Jurkat)
Outline: as §1

CUL2 Cullin-2 = biological target: T3, CUL2 Cullin-2 (Homo sapiens, UniProt Q13617); conditions: for isoTOP-ABPP ratio (R) at liganded lysine Q13617_K489: sol, 231
T3 construct: isoTOP-ABPP experiments performed in cell lysates (in vitro); endogenous in cells; host or cells: soluble proteome of human cancer cell lines (MDA-MB-231, Ramos, Jurkat)
T3 sequence (Q13617 whole entry): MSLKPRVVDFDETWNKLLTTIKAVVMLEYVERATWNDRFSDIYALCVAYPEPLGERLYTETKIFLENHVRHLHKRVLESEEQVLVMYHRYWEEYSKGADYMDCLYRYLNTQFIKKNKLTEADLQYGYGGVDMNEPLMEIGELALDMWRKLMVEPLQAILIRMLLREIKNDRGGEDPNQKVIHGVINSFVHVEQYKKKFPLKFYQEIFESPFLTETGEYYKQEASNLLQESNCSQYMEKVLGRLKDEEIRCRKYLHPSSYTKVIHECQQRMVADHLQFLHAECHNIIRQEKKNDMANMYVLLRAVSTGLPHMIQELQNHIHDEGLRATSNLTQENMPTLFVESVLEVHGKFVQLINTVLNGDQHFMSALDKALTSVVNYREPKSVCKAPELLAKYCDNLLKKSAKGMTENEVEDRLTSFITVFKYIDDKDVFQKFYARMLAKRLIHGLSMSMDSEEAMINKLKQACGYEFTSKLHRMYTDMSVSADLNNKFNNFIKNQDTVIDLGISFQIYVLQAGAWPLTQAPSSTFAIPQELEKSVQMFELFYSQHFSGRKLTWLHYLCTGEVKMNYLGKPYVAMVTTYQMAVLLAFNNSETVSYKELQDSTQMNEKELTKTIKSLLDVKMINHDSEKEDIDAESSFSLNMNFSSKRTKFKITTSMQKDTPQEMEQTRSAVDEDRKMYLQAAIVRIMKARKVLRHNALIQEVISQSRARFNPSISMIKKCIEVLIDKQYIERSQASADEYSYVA
Outline: as §1

[3] = biological target: T4, ABHD10 Abhydrolase domain-containing protein 10, mitochondrial (Homo sapiens, UniProt Q9NUJ1); set-up: key to isoTOP-ABPP reactivity ratio at lysine Q9NUJ1_K185: R = MS1 peak area ratio, DMSO (heavy) / compound-treated (light); capped at 20; conditions: for isoTOP-ABPP ratio (R) at liganded lysine Q9NUJ1_K185: sol, 231
T4 construct: endogenous in cells; host or cells: MDA-MB-231 lysate
T4 sequence (Q9NUJ1 53-306): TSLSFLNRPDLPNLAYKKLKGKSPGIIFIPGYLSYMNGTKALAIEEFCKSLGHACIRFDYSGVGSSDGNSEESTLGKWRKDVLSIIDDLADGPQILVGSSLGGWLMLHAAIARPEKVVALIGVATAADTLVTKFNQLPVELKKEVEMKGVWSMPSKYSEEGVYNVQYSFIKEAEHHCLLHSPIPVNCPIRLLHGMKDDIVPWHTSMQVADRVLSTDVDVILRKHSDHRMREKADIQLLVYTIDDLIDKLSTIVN
Method: In vitro covalent fragment treatment for isoTOP-ABPP. All compounds were made up as solutions in DMSO (100×) and were used at a final concentration of 50 μM for activated esters and 100 μM for guanidinylating agents. For each profiling sample, 0.5 ml of lysate was treated with 5 μl of the 100× compound stock solution or 5 μl of DMSO. Samples were treated with activated esters for
STP-alkyne labeling and click chemistry. For concentration-dependent reactivity measurements by isoTOP-ABPP, 0.5 ml proteome aliquots were treated at ambient temperature with 1 mM STP-alkyne 1 (5 μl of 100 mM stock in DMSO) and 0.1 mM STP alkyne 1 (5 μl of 10 mM stock in DMSO), respectively. For competitive isoTOP-ABPP, after in vitro fragment treatment (detailed above), the samples were labeled for 1 h at ambient temperature with 0.1 mM STP-alkyne 1 (5 μl of 10 mM stock in DMSO). Samples were conjugated by copper-mediated azide-alkyne cycloaddition (CuAAC) to either the light (1 mM STP-alkyne or fragment treated) or heavy (0.1 mM STP-alkyne or DMSO treated) TEV tags (10 μl of 5 mM stocks in DMSO, final concentration=100 μM) using tris(2-carboxyethyl)phosphine hydrochloride
R value calculation and processing. The ratios of light and heavy MS1 peaks for each unique peptide were quantified with a CIMAGE software using default parameters (3 MS1 acquisitions per peak and signal to noise threshold set to 2.5). For reactivity measurements by isoTOP-ABPP, the R value was calculated from the ratio of MS1 peak areas, comparing the 1 mM STP alkyne sample (light TEV tag) with the 0.1 mM STP alkyne sample (heavy TEV tag). For competitive isoTOP-ABPP, the R value was calculated from the ratio of MS1 peak areas, comparing the DMSO treated sample (heavy TEV tag) with the compound treated sample (light TEV tag). […] Ratios for unique peptide entries are calculated for each experiment; overlapping peptides with the same modified lysine (for example, different charge states, MudPIT chromatographic steps or tryptic termini) are grouped together and the median ratio is reported as the final ratio (R). The peptide ratios reported by CIMAGE were further filtered to ensure the removal or correction of low-quality ratios in each individual data set. The quality filters applied were the following: removal of half tryptic peptides; for ratios with high standard deviations from the median (90% of the median or above) the lowest ratio was taken instead of the median; removal of peptides with R=20 and only a single MS2 event triggered during the elution of the parent ion; manual annotation of all the peptides with ratios of 20, removing any peptides with low quality elution profiles that remained after the previous curation steps (only done for competitive isoTOP-ABPP).
Cross-data processing for fragment screening. For compound treated samples, biological replicates of the same condition were averaged, if the standard deviation was below 60% of the mean; otherwise, for lysines with at least one R value <4 for a particular compound, the lowest value of the ratio set was taken. For lysines, where all R values for a particular compound were ≥4, the average was reported. For peptides containing several possible modified lysines, the lysine with the highest number of quantification events was used for analysis and the remaining, redundant peptides were reported as alternative modification sites. Peptides included in the aggregate dataset (those used for further bioinformatics and statistical analyses) were required to have been quantified in 2 experiments for competitive isoTOP-ABPP. Lysines were categorized as liganded, if they had at least one ratio R≥4 (hit fragments). For liganded lysines with R=20 for all liganding events, lysines were required to have been quantified with R=20 in two separate experiments and were further required to have been quantified with R<20 in one additional experiment.

[4] = biological target: T5, FECH Ferrochelatase, mitochondrial (Homo sapiens, UniProt P22830); conditions: for isoTOP-ABPP reactivity ratio at lysine P22830_K304: 231 sol
T5 construct: isoTOP-ABPP experiments performed in cell lysates (in vitro); endogenous in cells; host or cells: soluble proteome of human cancer cell lines (MDA-MB-231; Ramos and Jurkat also prepared)
T5 sequence (P22830 55-423): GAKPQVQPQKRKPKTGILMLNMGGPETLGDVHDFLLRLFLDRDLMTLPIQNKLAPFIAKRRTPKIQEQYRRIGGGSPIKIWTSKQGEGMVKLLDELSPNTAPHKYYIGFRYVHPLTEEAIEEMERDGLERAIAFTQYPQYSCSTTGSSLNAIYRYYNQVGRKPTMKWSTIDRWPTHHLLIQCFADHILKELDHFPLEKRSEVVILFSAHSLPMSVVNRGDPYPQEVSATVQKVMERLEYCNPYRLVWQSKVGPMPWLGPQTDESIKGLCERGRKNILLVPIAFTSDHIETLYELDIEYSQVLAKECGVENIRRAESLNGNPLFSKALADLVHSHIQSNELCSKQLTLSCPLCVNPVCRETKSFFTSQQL
Outline: as §1

| isoTOP-ABPP reactivity ratio at lysine P22830_K304 ([4]; 50 uM, in vitro) | Structure (SMILES) | isoTOP-ABPP ratio (R) at liganded lysine P52292_K459 ([2]; 50 uM, in vitro) | isoTOP-ABPP ratio (R) at liganded lysine Q13617_K489 (CUL2 Cullin-2; 50 uM, in vitro) | isoTOP-ABPP ratio (R) at liganded lysine Q9NUJ1_K185 ([3]; 50 uM, in vitro) | isoTOP-ABPP reactivity ratio at lysine P52292_K459 ([2]; 50 uM, 231 sol, in vitro) | isoTOP-ABPP reactivity ratio at lysine Q13617_K489 (CUL2 Cullin-2; 50 uM, 231 sol, in vitro) | isoTOP-ABPP reactivity ratio at lysine Q9NUJ1_K185 ([3]; 50 uM, 231 sol, in vitro) | other results |
| --- | --- | --- | --- | --- | --- | --- | --- | --- |
|  | CC(C)(C)OC(=O)NCCCC(=O)Oc1ccc([N+](=O)[O-])cc1[N+](=O)[O-] [fragment 41, 2,4-Dinitrophenyl 4-((tert-butoxycarbonyl)amino)butanoate] | 2.3 | 1.0 | 3.3 |  |  |  | isoTOP-ABPP ratio (R) at liganded lysine P27635_K121 [1]: 0.8 |
|  | O=C(Oc1ccc([N+](=O)[O-])cc1[N+](=O)[O-])c1ccc(-c2ccccc2)cc1 [fragment 37, 2,4-Dinitrophenyl [1,1′-biphenyl]-4-carboxylate] | 0.9 | 1.0 | 1.2 |  |  |  | isoTOP-ABPP ratio (R) at liganded lysine P27635_K121 [1]: 0.8 |
|  | O=C(Oc1ccc([N+](=O)[O-])cc1[N+](=O)[O-])c1ccc2ccccc2n1 [fragment 35, 2,4-Dinitrophenyl quinoline-2-carboxylate] | 1.3 | 0.9 | 1.3 |  |  |  | isoTOP-ABPP ratio (R) at liganded lysine P27635_K121 [1]: 0.6 |
|  | COc1cc(CCC(=O)Oc2c(F)c(F)c(F)c(F)c2F)cc(OC)c1OC [fragment 23, Pentafluorophenyl 3-(3,4,5-trimethoxyphenyl)propanoate] |  |  |  |  |  |  | R value (DMSO/fragment) for probe 1 labeling ([2]; P52292_K459, 50 uM, 231 sol, in vitro): 1.9; R value (DMSO/fragment) for probe 1 labeling (CUL2 Cullin-2; Q13617_K489, 50 uM, 231 sol, in vitro): 0.9; R value (DMSO/fragment) for probe 1 labeling ([3]; Q9NUJ1_K185, 50 uM, 231 sol, in vitro): 2.0 |
|  | O=C(Oc1ccc([N+](=O)[O-])cc1[N+](=O)[O-])c1ccccc1Nc1cccc(C(F)(F)F)c1 [fragment 40, 2,4-Dinitrophenyl 2-((3-(trifluoromethyl)phenyl)amino)benzoate] | 1.7 | 20.0 | 0.9 |  |  |  |  |
| 1.0 | O=C(Oc1c(F)c(F)c(F)c(F)c1F)c1ccc2ccccc2n1 [fragment 25, Pentafluorophenyl quinoline-2-carboxylate] |  |  |  | 1.3 | 1.1 | 1.5 |  |
|  | O=C(Oc1ccc([N+](=O)[O-])cc1[N+](=O)[O-])C(c1ccccc1)c1ccccc1 [fragment 30, 2,4-Dinitrophenyl 2,2-diphenylacetate] |  |  |  | 4.3 | 1.1 | 2.4 | isoTOP-ABPP reactivity ratio at lysine P27635_K121 [1]: 1.1 |
| 1.5 | O=C(CN1C(=O)c2ccccc2C1=O)Oc1c(F)c(F)c(F)c(F)c1F [fragment 27, Pentafluorophenyl 2-(1,3-dioxoisoindolin-2-yl)acetate] |  |  |  | 1.3 | 1.1 | 1.9 |  |
|  | O=C(Oc1ccc([N+](=O)[O-])cc1[N+](=O)[O-])C(c1ccccc1)(c1ccccc1)c1ccccc1 [fragment 42, 2,4-Dinitrophenyl 2,2,2-triphenylacetate] | 0.9 |  | 1.0 |  |  |  | isoTOP-ABPP ratio (R) at liganded lysine P22830_K304 ([4]; 50 uM, in vitro, sol, 231): 1.0 |
|  | Cn1cc(CC(=O)Oc2ccc([N+](=O)[O-])cc2[N+](=O)[O-])c2ccccc21 [fragment 32, 2,4-Dinitrophenyl 2-(1-methyl-1H-indol-3-yl)acetate] |  |  |  | 1.8 | 1.1 | 1.4 | isoTOP-ABPP reactivity ratio at lysine P27635_K121 [1]: 1.7 |
| 1.5 | O=C(Oc1c(F)c(F)c(F)c(F)c1F)C1CCN(C(=O)OCc2ccccc2)CC1 [fragment 24, 1-Benzyl 4-(pentafluorophenyl) piperidine-1,4-dicarboxylate] |  |  |  | 1.2 | 0.9 |  |  |
|  | NC(=O)c1cc(C(F)(F)F)cc(C(F)(F)F)c1 [fragment 51, reference compound] |  |  |  |  |  |  | isoTOP-ABPP ratio, lysine P22830_K304 ([4]; 50 uM_231_sol_in vitro): 0.8; isoTOP-ABPP ratio, lysine P52292_K459 ([2]; 50 uM_231_sol_in vitro): 0.9; isoTOP-ABPP ratio, lysine Q13617_K489 (CUL2 Cullin-2; 50 uM_231_sol_in vitro): 1.1; isoTOP-ABPP ratio, lysine Q9NUJ1_K185 ([3]; 50 uM_231_sol_in vitro): 1.0 |
|  | O=C(Oc1ccc([N+](=O)[O-])cc1[N+](=O)[O-])C1CCN(C(=O)OCc2ccccc2)CC1 [fragment 34, 1-Benzyl 4-(2,4-dinitrophenyl) piperidine-1,4-dicarboxylate] | 1.0 | 1.1 | 1.5 |  |  |  | isoTOP-ABPP ratio (R) at liganded lysine P27635_K121 [1]: 1.3 |
| 1.5 | CCn1cc(C(=O)Oc2c(F)c(F)c(F)c(F)c2F)c(=O)c2ccc(C)nc21 [fragment 28, Pentafluorophenyl 1-ethyl-7-methyl-4-oxo-1,4-dihydro-1,8-naphthyridine-3-carboxylate] |  |  |  | 1.3 | 1.0 | 1.2 |  |

| Structure (SMILES) | isoTOP-ABPP reactivity ratio at lysine P22830_K304 ([4]; 50 uM, in vitro) | isoTOP-ABPP ratio (R) at liganded lysine P52292_K459 ([2]; 50 uM, in vitro) | isoTOP-ABPP ratio (R) at liganded lysine Q13617_K489 (CUL2 Cullin-2; 50 uM, in vitro) | isoTOP-ABPP ratio (R) at liganded lysine Q9NUJ1_K185 ([3]; 50 uM, in vitro) | isoTOP-ABPP reactivity ratio at lysine P52292_K459 ([2]; 50 uM, 231 sol, in vitro) | isoTOP-ABPP reactivity ratio at lysine Q13617_K489 (CUL2 Cullin-2; 50 uM, 231 sol, in vitro) | isoTOP-ABPP reactivity ratio at lysine Q9NUJ1_K185 ([3]; 50 uM, 231 sol, in vitro) | other results |
| --- | --- | --- | --- | --- | --- | --- | --- | --- |
| COc1cc(CCC(=O)Oc2ccc([N+](=O)[O-])cc2[N+](=O)[O-])cc(OC)c1OC [fragment 33, 2,4-Dinitrophenyl 3-(3,4,5-trimethoxyphenyl)propanoate] | 1.7 |  |  |  | 1.8 | 1.2 | 2.1 |  |
| O=C(Oc1ccc([N+](=O)[O-])cc1[N+](=O)[O-])c1cc(C(F)(F)F)cc(C(F)(F)F)c1 [fragment 31, 2,4-Dinitrophenyl 3,5-bis(trifluoromethyl)benzoate] | 3.2 |  |  |  | 1.3 | 1.1 | 4.4 |  |

Reference: patent US20210255193A1, “LYSINE REACTIVE PROBES AND USES THEREOF” (The Scripps Research Institute, priority 2017, published 2021)
